US20260008754A1, “N-SUBSTITUTED DERIVATIVES OF L-(L-PHENYL-3-ARYL)-LFF-PYRAZOL-4-YL)METHANAININE, METHOD FOR THEIR PRODUCTION AND THEIR APPLICATIONS” (priority 2022, published 2026)

Legend:
μ opioid receptor [1] = target: T1, μ opioid receptor (Homo sapiens, UniProt P35372); test: μ opioid receptor agonism, G protein signaling pathway; type: cell-based; conditions: for Biased Agonism Selectivity Coefficient k: G protein pathway relative to β arrestin (ratio of the two EC50)
μ opioid receptor [2] = target: T1, μ opioid receptor; test: μ opioid receptor agonism, β arrestin pathway; type: cell-based
[3] = μ opioid receptor, G protein pathway, read-out: EC50 (G protein)
[4] = μ opioid receptor, β arrestin pathway, read-out: EC50 (β arrestin)

T1 sequence (P35372 whole entry, species assumed): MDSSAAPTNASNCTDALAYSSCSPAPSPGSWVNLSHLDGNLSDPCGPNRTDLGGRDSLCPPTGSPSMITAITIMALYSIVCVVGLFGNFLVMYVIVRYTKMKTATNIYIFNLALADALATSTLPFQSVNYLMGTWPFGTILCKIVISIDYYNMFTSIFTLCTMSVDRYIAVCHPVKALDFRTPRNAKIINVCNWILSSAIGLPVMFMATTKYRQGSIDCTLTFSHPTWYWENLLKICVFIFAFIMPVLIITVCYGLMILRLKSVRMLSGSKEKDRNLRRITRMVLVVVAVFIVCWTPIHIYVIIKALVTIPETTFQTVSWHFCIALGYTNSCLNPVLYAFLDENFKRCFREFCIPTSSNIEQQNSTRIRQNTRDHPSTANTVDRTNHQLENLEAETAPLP

SMILES | EC50 (μ opioid receptor [1]) [nM] | Biased Agonism Selectivity Coefficient k (μ opioid receptor [1]) | EC50 (μ opioid receptor [2]) [nM] | EC50 (μ opioid receptor [1]; [3]) [nM] | EC50 (μ opioid receptor [2]; [4]) [nM]
CCCNC(=O)c1cccc(CNCc2cn(-c3ccccc3)nc2-c2ccccc2)c1 [Compound 2] | 146 | 34.8 | 5060 | – | –
CCOC(=O)c1cccc(CNCc2cn(-c3ccccc3)nc2-c2ccncc2)c1 [Compound 11] | 7220 | 9.3 | 67500 | – | –
CCCOC(=O)c1cccc(CNCc2cn(-c3ccccc3)nc2-c2ccncc2)c1 [Compound 9] | 22200 | 13.6 | 1630 | – | –
c1ccc(-c2nn(-c3ccccc3)cc2CNCc2ccc3occc3c2)cc1 [Compound 4] | 139 | 32.8 | 4570 | – | –
c1ccc(-n2cc(CNCCn3cccn3)c(-c3ccncc3)n2)cc1 [Compound 15] | 3100 | – | – | – | –
c1ccc(-n2cc(CNCc3ccc4occc4c3)c(-c3ccncc3)n2)cc1 [Compound 3] | – | 157.9 | – | 1.24 | 195
c1ccc(-n2cc(CNCc3ccc4c(c3)OCO4)c(-c3ccncc3)n2)cc1 [Compound 12] | – | 2228.6 | – | 10.5 | 23400
CCOC(=O)c1cccc(CNCc2cn(-c3ccccc3)nc2-c2ccccc2)c1 [Compound 10] | 13900 | 7.6 | 1830 | – | –
CCCNC(=O)c1cccc(CNCc2cn(-c3ccccc3)nc2-c2ccncc2)c1 [Compound 1] | 704 | 26.7 | 18800 | – | –
CCCOC(=O)c1cccc(CNCc2cn(-c3ccccc3)nc2-c2ccccc2)c1 [Compound 8] | 6450 | 11.3 | 569 | – | –
c1ccc(-n2cc(CNCc3ccc4c(c3)CCO4)c(-c3ccncc3)n2)cc1 [Compound 13] | – | 940.9 | – | 6.26 | 5890
CC(C)Oc1ccc(CNCc2cn(-c3ccccc3)nc2-c2ccncc2)cc1 [Compound 14] | 521 | – | – | – | –
Cc1cc(C)n2c(CNCc3cn(-c4ccccc4)nc3-c3ccccc3)cnc2n1 [Compound 6] | 2190 | – | – | – | –
